The subject of assay [1] is muscle progenitors (hMP) from DMD hiPSC or WT hiPSC. Kind of assay: Myotube assay: myogenic activity (total myotube area per well). Type of assay: cell-based, human. As to conditions: Homo sapiens, 72 h; myotube assay, compounds incubated 3 days; read-out: MA (normalized Myotube Area, efficacy). The method, then: An in vitro assay for assessing the efficacy of compounds for use in treating, ameliorating, delaying, curing and/or preventing a disease or condition associated with muscle cells and/or satellite cells is described in example 78. Herein, the generation of myotubes and satellite cells after adding a compound to a myotube assay workflow is assessed. Said myotube assay workflow is derived from wild-type or DMD human induced pluripotent stem cells (WT hiPSC or DMD hiPSC). Before the addition of said compound, the assay comprises satellite-like cells, but no significant amount of myotubes.
(§1) The efficacy of said compound for use in treating, ameliorating, delaying, curing and/or preventing a disease or condition associated with muscle cells and/or satellite cells is positively correlated with the generation of myotubes (i.e. the increase of the area occupied by myotubes on the assay) and/or satellite cells (i.e. the increase of the number of satellite cells) in the assay after adding said compound. The generation of myotubes by the addition of said compound is expressed as the EC50 value, the concentration of said compound that corresponds with the half-maximal generation of myotubes, and the MA (normalized myotube area) value, the normalized area occupied by generated myotubes on the assay. […] Since muscle cells are formed from myotubes during myogenesis, the generation of myotubes in the assay is a good indicator of the ability of said compound to induce the formation of functional muscle cells in vivo. The number of satellite cells is measured as the percentage of Pax7 positive cells, relative to the total number of cells in the assay, as shown in FIG. 3. The percentage of Pax7 is a good indicator of the ability of said compound to induce the formation of satellite cells which are able to play a role in muscle repair and regeneration in vivo.
(§2) DMD human induced pluripotent stem cells (hereafter “DMD hiPSC”), generated from the NORM-1 hiPSC WT cell line by gene editing, or WT human induced pluripotent stem cells (hereafter “WT hiPSC”), being NORM-1 hiPSC wt cell line, have been differentiated according to Chal et al. 2015, 2016, to produce muscle progenitors (hereafter “hMP”). The hMP population contains satellite-like cells (i.e Pax7-positive cells) and satellite cells' progenies (i.e. Myogenin-positive cells).
(§3) FIG. 1 provides an example of a Myotube assay workflow. At day 0, hMP are thawed and 3.1 million cells are plated into a T75-flask coated with hESC-qualified Matrigel™ (Corning) in SkGM proliferating medium (PromoCells), supplemented with 5 μM Y-27632 (Tocris Bioscience). On day 2, SkGM proliferating medium is refreshed. On day 4, hMP are harvested and transferred into a 384-well plate coated with collagen type I at a density of 3500 cells/well in a DMEM-based medium, containing 5% of knockout serum replacement (Gibco), 1% PenStrep (Gibco), 1% MEM NEAA (Gibco) and 0.1 mM 2-mercaptoethanol (Gibco) (hereafter “K5 medium”) and 5 μM Y-27632. Compounds to be tested are then added in the medium and incubated for 3 days at 37° C. On day 7, cells are fixed and immunostained. For example, myotubes (alpha-actinin staining) and satellite-like (Pax7 staining) cells can be analyzed for total myotube area per well or Pax7-positive cell quantification.
DMD hMP were put in the Myotube assay according to the workflow described in Example 2.1. In particular, compound (i) was added at concentrations ranging from 1.5 nM to 30 μM, starting from day 4. hMP were cultivated for three more days in presence of compound (i), then fixed and analyzed for quantification of total myotube area per well. Duplicates of each condition were averaged.
Qualitative scale: ++++: EC50<500 nM; +++: 500 nM≤EC50<1000 nM; ++: 1000 nM≤EC50<5000 nM; +: EC50≥5000 nM; +++: MA≥75%; ++: 50%≤MA<75%; +: 25%≤MA<50%.

Assay [2] concerns satellite-like cells (Pax7-positive cells) in hMP. As to the kind of experiment: Myotube assay: Pax7-positive (satellite-like) cell quantification. Also noted: key to Pax7% (pool of Pax7-positive cells) / Pax7: −: Depletes the pool of cells, while positively affects the myotubes; +: Maintains or increases the pool of cells, with at least 1 of the highest concentration known to be cytotoxic; ++: Maintains or increases the pool of cells, without any toxicity. The format is cell-based, human. As to conditions: myotube assay, compounds incubated 3 days.
Source text: as §1, §2, §3
DMD hMP were put in the Myotube assay according to the workflow described in Example 2.1. In particular, compound (i) was added at concentrations ranging from 1.5 nM to 30 μM, starting from day 4. hMP were cultivated for three more days in presence of compound (i), then fixed and analyzed for percentage of Pax7-positive cells and nuclei number. Duplicates of each condition were averaged.
(−): Depletes the pool of cells, while positively affects the myotubes; (+): Maintains or increases the pool of cells, with at least 1 of the highest concentration known to be cytotoxic; and (++) Maintains or increases the pool of cells, without any toxicity.

Consider `CSc1cc(Oc2ccnc3[nH]c(=O)cnc23)ccc1NC(=O)Nc1cc(C(C)(C)C)nn1-c1ccc(OCCCN(C)C)cc1` [(cr), 1-(3-(tert-butyl)-1-(4-(3-(dimethylamino)propoxy)phenyl)-1H-pyrazol-5-yl)-3-(2-(methylthio)-4-((3-oxo-3,4-dihydropyrido[2,3-b]pyrazin-8-yl)oxy)phenyl)urea], for which the Emax in assay [1] is at least 75%. Besides, the “Pax7% (pool of Pax7-positive cells)” value in assay [2] is “+”.
For the compound `CNC(=O)c1cc(Oc2ccc(NC(=O)Nc3cc(C(C)(C)C)nn3-c3ccc4ncccc4c3)c(SC)c2)ccn1` [(ag), 4-(4-(3-(3-(tert-butyl)-1-(quinolin-6-yl)-1H-pyrazol-5-yl)ureido)-3-(methylthio)phenoxy)-N-methylpicolinamide], the Emax in assay [1] is at least 75%. In assay [2], the “Pax7% (pool of Pax7-positive cells)” value was “++”.
In the same order, the values of `CCOC(=O)Nc1cc(Oc2ccc(NC(=O)Nc3cc(C(C)(C)C)no3)c3ccccc23)ccn1` [(db), Ethyl (4-((4-(3-(3-(tert-butyl)isoxazol-5-yl)ureido)naphthalen-1-yl)oxy)pyridin-2-yl)carbamate] are at least 75% and “+”.
Taken in the same sequence, the figures for `CSc1cc(Oc2ccnc3[nH]c(=O)cnc23)ccc1NC(=O)Nc1cc(C(C)(C)C)nn1-c1ccc(C)nc1` [(bd), 1-(3-(tert-butyl)-1-(6-methylpyridin-3-yl)-1H-pyrazol-5-yl)-3-(2-(methylthio)-4-((3-oxo-3,4-dihydropyrido[2,3-b]pyrazin-8-yl)oxy)phenyl)urea] were at least 75% and “+”.
In the same order, the values of `CC(C)(C)c1cc(NC(=O)Nc2ccc(Oc3ccnc4[nH]c(=O)cnc34)cn2)n(-c2ccccc2)n1` [(u), 1-(3-(tert-butyl)-1-phenyl-1H-pyrazol-5-yl)-3-(5-((3-oxo-3,4-dihydropyrido[2,3-b]pyrazin-8-yl)oxy)pyridin-2-yl)urea] are 25 to 50% and “++”.
In the case of `CSc1cc(Oc2ccnc(N(CCN(C)C)C(=O)OC(C)(C)C)c2)ccc1NC(=O)Nc1cc(C(C)(C)C)nn1-c1ccccc1` [(ch), Tert-Butyl (4-(4-(3-(3-(tert-butyl)-1-phenyl-1H-pyrazol-5-yl)ureido)-3-(methylthio)phenoxy)pyridin-2-yl)(2-(dimethylamino)ethyl)carbamate], the Emax in assay [1] fell in the range of 50 to 75%. Moreover, the “Pax7% (pool of Pax7-positive cells)” value in assay [2] is given as “+”.
For the compound `CC(C)(C)c1cnc(NC(=O)Nc2ccc(Oc3ccnc4[nH]c(=O)cnc34)c3ccccc23)s1` [(ba), 1-(5-(tert-butyl)thiazol-2-yl)-3-(4-((3-oxo-3,4-dihydropyrido[2,3-b]pyrazin-8-yl)oxy)naphthalen-1-yl)urea], the Emax in assay [1] is at least 75%. Further, in assay [2], the “Pax7% (pool of Pax7-positive cells)” value is “++”.
In the case of `CCOC(=O)Nc1cc(Oc2ccc(NC(=O)Nc3cc(C(C)(C)C)nn3-c3ccccc3)c(SC)c2)ccn1` [(cv), Ethyl (4-(4-(3-(3-(tert-butyl)-1-phenyl-1H-pyrazol-5-yl)ureido)-3-(methylthio)phenoxy)pyridin-2-yl)carbamate], the Emax in assay [1] is at least 75%. Besides, the “Pax7% (pool of Pax7-positive cells)” value in assay [2] is “+”.
Taken in the same sequence, the figures for `CCOC(=O)Nc1cc(Oc2ccc(NC(=O)Nc3cc(C(C)(C)C)no3)c(SC)c2)ccn1` [(de), Ethyl (4-(4-(3-(3-(tert-butyl)isoxazol-5-yl)ureido)-3-(methylthio)phenoxy)pyridin-2-yl)carbamate] were at least 75% and “+”.
In the same order, the values of `CSc1cc(Oc2ccnc3[nH]c(=O)cnc23)ccc1NC(=O)Nc1nnc(C(C)(C)C)o1` [(cj), 1-(5-(tert-butyl)-1,3,4-oxadiazol-2-yl)-3-(2-(methylthio)-4-((3-oxo-3,4-dihydropyrido[2,3-b]pyrazin-8-yl)oxy)phenyl)urea] are at least 75% and “+”.
Taken in the same sequence, the figures for `CC(C)(C)c1cc(NC(=O)Nc2ccc(Oc3ccncc3)cc2)n(-c2ccccc2)n1` [(bl), 1-(3-(tert-butyl)-1-phenyl-1H-pyrazol-5-yl)-3-(4-(pyridin-4-yloxy)phenyl)urea] were 50 to 75% and “+”.
For `CSc1cc(Oc2ccncc2)ccc1NC(=O)Nc1cc(C(C)(C)C)nn1-c1ccccc1` [(dk), 1-(3-(tert-butyl)-1-phenyl-1H-pyrazol-5-yl)-3-(2-(methylthio)-4-(pyridin-4-yloxy)phenyl)urea], the Emax in assay [1] fell in the range of 25 to 50%. Further, in assay [2], the “Pax7% (pool of Pax7-positive cells)” value is “++”.
Consider `CC(C)(C)c1cc(NC(=O)Nc2ccc(Oc3ccnc4[nH]c(=O)cnc34)cc2F)[nH]n1` [(h), 1-(3-(tert-butyl)-1H-pyrazol-5-yl)-3-(2-fluoro-4-((3-oxo-3,4-dihydropyrido[2,3-b]pyrazin-8-yl)oxy)phenyl)urea], for which, in assay [1], the Emax fell in the range of 25 to 50%. Also, the “Pax7% (pool of Pax7-positive cells)” value in assay [2] is listed as “+”.
For the compound `CNC(=O)c1cc(Oc2ccc(NC(=O)Nc3cc(C(C)(C)C)nn3-c3ccc4ncccc4c3)c3ccccc23)ccn1` [(bf), 4-((4-(3-(3-(tert-butyl)-1-(quinolin-6-yl)-1H-pyrazol-5-yl)ureido)naphthalen-1-yl)oxy)-N-methylpicolinamide], in assay [1], the Emax is at least 75%. In addition, in assay [2], the “Pax7% (pool of Pax7-positive cells)” value was “+”.
Taken in the same sequence, the figures for `CSc1cc(Oc2ccnc(C(=O)Nc3ccccc3)c2)ccc1NC(=O)Nc1cc(C(C)(C)C)nn1-c1ccccc1` [(co), 4-(4-(3-(3-(tert-butyl)-1-phenyl-1H-pyrazol-5-yl)ureido)-3-(methylthio)phenoxy)-N-phenylpicolinamide] were 25 to 50% and “++”.
For `CC(C)c1cc(Oc2ccnc3[nH]c(=O)cnc23)ccc1NC(=O)Nc1cc(C(C)(C)C)nn1-c1ccccc1` [(bk), 1-(3-(tert-butyl)-1-phenyl-1H-pyrazol-5-yl)-3-(2-isopropyl-4-((3-oxo-3,4-dihydropyrido[2,3-b]pyrazin-8-yl)oxy)phenyl)urea], the Emax in assay [1] was at least 75%. Also, the “Pax7% (pool of Pax7-positive cells)” value in assay [2] was “++”.
In the same order, the values of `CC(C)(C)c1cc(NC(=O)Nc2ccc(Oc3ccnc4[nH]c(=O)cnc34)cc2F)n(Cc2ccccc2)n1` [(j), 1-(1-benzyl-3-(tert-butyl)-1H-pyrazol-5-yl)-3-(2-fluoro-4-((3-oxo-3,4-dihydropyrido[2,3-b]pyrazin-8-yl)oxy)phenyl)urea] are 50 to 75% and “++”.
On to `CSc1cc(Oc2ccnc3c2ncc(=O)n3C)ccc1NC(=O)Nc1cc(C(C)(C)C)nn1-c1ccccc1` [(au), 1-(3-(tert-butyl)-1-phenyl-1H-pyrazol-5-yl)-3-(4-((4-methyl-3-oxo-3,4-dihydropyrido[2,3-b]pyrazin-8-yl)oxy)-2-(methylthio)phenyl)urea], for which the Emax in assay [1] is at least 75%. Besides, the “Pax7% (pool of Pax7-positive cells)” value in assay [2] is listed as “++”.

Source of the values: patent publication US20230089368A1, “POLYAROMATIC UREA DERIVATIVES AND THEIR USE IN THE TREATMENT OF MUSCLE DISEASES” (ANAGENESIS BIOTECHNOLOGIES S.A.S., priority 2019, published 2023).
